# Assay results reported in article PMC9161374 (Science Translational Medicine, 2022).
# Values joined by “and” are separate entries in the source; they are usually repeats but may differ in a detail not shown here. Equal entries are not always repeated. Where two headings read alike, the source gives them in different places.
# Key:
# Vero E6 cells = assay: CCK-8 cell viability assay; type: cell-based, African green monkey; details: individual replicate values, Fig.S4
# Outline: (§1)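 Vero E6 cells, 20,000/well, exposed to compound at 0–200 μM (0, 0.01, 0.1, 1, 5, 10, 50, 75, 100, 200 μM) for 48 h; viability read by CCK-8 and expressed as percentage versus drug concentration, mean ± SD.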
# [1] = CCK-8 cell viability assay; type: cell-based, African green monkey; details: African green monkey; Vero E6 cells, 48 h, CCK8
# Outline: as §1
# [2] = Permeability and efflux ratio in Caco-2 cells; type: in vitro ADME; details: human
# Text: ATV019, and ATV020 in Caco-2 cells.
# Compound Caco-2 AB/BA (Papp (10-6 cm/s)) a Efflux ratio
# [3] = system: SARS-CoV-2 (Delta, B.1.617.2); assay: microbe, parasite or virus in culture; type: cell-based; details: for % Inhibition: delta
# [4] = system: SARS-CoV-2 (B.1) in Huh7 cells; assay: Anti-SARS-CoV-2 activity in Huh7 cells (viral yield by qRT-PCR); type: cell-based; details: B.1, MOI 0.05, 48 h
# SARS-CoV-2 (B.1) = assay: Anti-SARS-CoV-2 activity in Vero E6 cells (viral yield by qRT-PCR); type: cell-based
# [5] = system: SARS-CoV-2 replicon system (pBAC-SARS-CoV-2-Replicon-Luc); assay: microbe, parasite or virus in culture; type: cell-based; details: Severe acute respiratory syndrome coronavirus 2, HEK-293T, 60 h
# [6] = system: SARS-CoV-2 (Beta, B.1.351); assay: microbe, parasite or virus in culture; type: cell-based; details: for EC50: read-out: EC50 in Vero E6 cells, SARS-CoV-2 (Beta, B.1.351); for % Inhibition: beta
# [7] = Tissue distribution study in rats; type: in vivo, Sprague Dawley rats; details: rat, oral 100 mg/kg; for Cmax, RTP in kidney / Cmax, RTP in lung / Cmax, GS-441525 in brain / Cmax, GS-441525 in kidney / Cmax, GS-441525 in lung: individual animals
# Procedure: Three rats in each group were anesthetized at 1-, 4-, and 24-hours post-dosing. Blood samples were collected into the heparinized tubes which containing PhosSTOP and DTNB and centrifuged. Tissue samples, including liver, kidney, and lung were harvested after perfusion with saline and immediately homogenized for further analysis as previously described ([64]). […] For RMP and RTP determination, 50 μL of plasma or homogenate was immediately added to 150 μL of 2% formic acid and 5 μL of 10 μM ^13C,^15N-adenosine triphosphate (ATP) aqueous solution, then vortexed thoroughly and centrifuged at 4°C. Supernatant in a volume of 180 μL was mixed with an equivalent volume of water for solid-phase extraction (SPE) with a weak anion exchange plate (Waters Oasis WAX μElution plate). Finally, the eluate was gently evaporated to dryness under a gentle stream of air, and the residue was reconstituted with 100 μL H2O for analysis on a Waters Positive Pressure-96 processor.
compound,measurement,setting,value
"N#C[C@@]1(c2ccc3c(N)ncnn23)O[C@H](CO)[C@@H](O)[C@H]1O [GS-441524, reference compound]",cell viability (% of control),"Vero E6 cells; 0.1 μM compound, 0.1 µM",105.342 % of control
same,cell viability (% of control),"Vero E6 cells; 1 μM compound, 1 µM",107.061 % of control and 113.737 % of control
same,cell viability (% of control),"Vero E6 cells; 2 μM compound, 2 µM",117.342 % of control and 112.354 % of control and 107.242 % of control
same,cell viability (% of control),"Vero E6 cells; 5 μM compound, 5 µM",121.028 % of control and 116.731 % of control
same,cell viability (% of control),"Vero E6 cells; 10 μM compound, 10 µM",98.5418 % of control and 94.9348 % of control and 94.7813 % of control
same,cell viability (% of control),"Vero E6 cells; 20 μM compound, 20 µM",98.3543 % of control and 95.3243 % of control and 95.3532 % of control
same,cell viability (% of control),"Vero E6 cells; 50 μM compound, 50 µM",93.3231 % of control and 94.7045 % of control and 94.3208 % of control
same,CC50 at 48 h,[1],> 50000 nM
same,Papp A→B,[2]; AB,1.22 ×10⁻⁶ cm/s
same,Papp B→A,[2]; BA,1.2 ×10⁻⁶ cm/s
same,EC50,"[3]; Severe acute respiratory syndrome coronavirus 2, Vero C1008, 48 h, read-out: EC50 in Vero E6 cells, SARS-CoV-2 (Delta, B.1.617.2)",957 nM
same,inhibition at 0.01 µM,"[3]; Severe acute respiratory syndrome coronavirus 2, Vero C1008, delta, 0.01 uM, Vero E6, replicates",0%
same,inhibition at 0.1 µM,"[3]; Severe acute respiratory syndrome coronavirus 2, Vero C1008, delta, 0.1 uM, Vero E6, replicates",0%
same,inhibition at 0.25 µM,"[3]; Severe acute respiratory syndrome coronavirus 2, Vero C1008, delta, 0.25 uM, Vero E6, replicates",0%
same,inhibition at 0.5 µM,"[3]; Severe acute respiratory syndrome coronavirus 2, Vero C1008, delta, 0.5 uM, Vero E6, replicates",0%
same,inhibition at 2 µM,"[3]; Severe acute respiratory syndrome coronavirus 2, Vero C1008, delta, 2 uM, Vero E6, replicates",94.9%
same,inhibition at 5 µM,"[3]; Severe acute respiratory syndrome coronavirus 2, Vero C1008, delta, 5 uM, Vero E6, replicates",97%
same,inhibition at 10 µM,"[3]; Severe acute respiratory syndrome coronavirus 2, Vero C1008, delta, 10 uM, Vero E6, replicates",98.7%
same,inhibition at 50 µM,"[3]; Severe acute respiratory syndrome coronavirus 2, Vero C1008, delta, 50 uM, Vero E6, replicates",99.8%
same,EC90,"[3]; Severe acute respiratory syndrome coronavirus 2, Vero C1008, read-out: EC90 (Confidence 95%), Vero-E6, Delta B.1.617.2",1360 nM
same,% Inhibition,"[3]; 1 uM, Vero E6, replicates",66.6762% and 46.4634%
same,% Inhibition,"[3]; 2 uM, Vero E6, replicates",93.4361%
same,% Inhibition,"[3]; 5 uM, Vero E6, replicates",94.7905%
same,% Inhibition,"[3]; 10 uM, Vero E6, replicates",95.0345%
same,% Inhibition,"[3]; 50 uM, Vero E6, replicates",98.9856%
same,EC50,"[4]; Severe acute respiratory syndrome coronavirus 2, Huh-7, read-out: EC50 (Confidence 95%) in Huh7 cells",1760 nM
same,EC90,"[4]; Severe acute respiratory syndrome coronavirus 2, Huh-7, read-out: EC90 (Confidence 95%) in Huh7 cells",2080 nM
same,% Inhibition,"SARS-CoV-2 (B.1); 2 μM, replicates, sheet Fig.S3",71.478%
same,% Inhibition,"SARS-CoV-2 (B.1); 5 μM, replicates, sheet Fig.S3",85.4877%
same,% Inhibition,"SARS-CoV-2 (B.1); 10 μM, replicates, sheet Fig.S3",86.8803%
same,% Inhibition,"SARS-CoV-2 (B.1); B.1, 1 uM, Vero E6, replicates, 1 µM",3.349%
same,% Inhibition,"SARS-CoV-2 (B.1); B.1, 2 uM, Vero E6, replicates, 2 µM",80.3269%
same,% Inhibition,"SARS-CoV-2 (B.1); B.1, 5 uM, Vero E6, replicates, 5 µM",96.5344%
same,% Inhibition,"SARS-CoV-2 (B.1); B.1, 10 uM, Vero E6, replicates, 10 µM",98.7837%
same,% Inhibition,"SARS-CoV-2 (B.1); B.1, 50 uM, Vero E6, replicates, 50 µM",98.8136%
same,inhibition at 0.1 µM,"SARS-CoV-2 (B.1); Severe acute respiratory syndrome coronavirus 2, Vero C1008, 0.1 μM, replicates, sheet Fig.S3",0%
same,inhibition at 0.5 µM,"SARS-CoV-2 (B.1); Severe acute respiratory syndrome coronavirus 2, Vero C1008, 0.5 μM, replicates, sheet Fig.S3",0%
same,inhibition at 1 µM,"SARS-CoV-2 (B.1); Severe acute respiratory syndrome coronavirus 2, Vero C1008, 1 μM, replicates, sheet Fig.S3",0%
same,inhibition at 2 µM,"SARS-CoV-2 (B.1); Severe acute respiratory syndrome coronavirus 2, Vero C1008, 2 μM, replicates, sheet Fig.S3",72.7%
same,inhibition at 5 µM,"SARS-CoV-2 (B.1); Severe acute respiratory syndrome coronavirus 2, Vero C1008, 5 μM, replicates, sheet Fig.S3",85.9%
same,inhibition at 10 µM,"SARS-CoV-2 (B.1); Severe acute respiratory syndrome coronavirus 2, Vero C1008, 10 μM, replicates, sheet Fig.S3",90.7%
same,inhibition at 0.01 µM,"SARS-CoV-2 (B.1); Severe acute respiratory syndrome coronavirus 2, Vero C1008, B.1, 0.01 uM, Vero E6, replicates",0%
same,inhibition at 0.1 µM,"SARS-CoV-2 (B.1); Severe acute respiratory syndrome coronavirus 2, Vero C1008, B.1, 0.1 uM, Vero E6, replicates",0%
same,inhibition at 0.25 µM,"SARS-CoV-2 (B.1); Severe acute respiratory syndrome coronavirus 2, Vero C1008, B.1, 0.25 uM, Vero E6, replicates",0%
same,inhibition at 0.5 µM,"SARS-CoV-2 (B.1); Severe acute respiratory syndrome coronavirus 2, Vero C1008, B.1, 0.5 uM, Vero E6, replicates",0%
same,inhibition at 2 µM,"SARS-CoV-2 (B.1); Severe acute respiratory syndrome coronavirus 2, Vero C1008, B.1, 2 uM, Vero E6, replicates",72.6%
same,inhibition at 5 µM,"SARS-CoV-2 (B.1); Severe acute respiratory syndrome coronavirus 2, Vero C1008, B.1, 5 uM, Vero E6, replicates",95.7%
same,inhibition at 10 µM,"SARS-CoV-2 (B.1); Severe acute respiratory syndrome coronavirus 2, Vero C1008, B.1, 10 uM, Vero E6, replicates",98.5%
same,inhibition at 50 µM,"SARS-CoV-2 (B.1); Severe acute respiratory syndrome coronavirus 2, Vero C1008, B.1, 50 uM, Vero E6, replicates",98.7%
same,EC90,"SARS-CoV-2 (B.1); Severe acute respiratory syndrome coronavirus 2, Vero C1008, read-out: EC90 (Confidence 95%)",2390 nM
same,EC50,"SARS-CoV-2 (B.1); Severe acute respiratory syndrome coronavirus 2, Vero C1008, MOI 0.05, 48 h",1710 nM
same,EC50,"[5]; read-out: EC50 (Confidence 95%), replicon",955 nM
same,EC90,"[5]; read-out: EC90 (Confidence 95%), replicon",3250 nM
same,EC50,"[6]; Severe acute respiratory syndrome coronavirus 2, Vero C1008, 48 h",1340 nM
same,inhibition at 0.01 µM,"[6]; Severe acute respiratory syndrome coronavirus 2, Vero C1008, beta, 0.01 uM, Vero E6, replicates",0%
same,inhibition at 0.1 µM,"[6]; Severe acute respiratory syndrome coronavirus 2, Vero C1008, beta, 0.1 uM, Vero E6, replicates",0%
same,inhibition at 0.25 µM,"[6]; Severe acute respiratory syndrome coronavirus 2, Vero C1008, beta, 0.25 uM, Vero E6, replicates",0%
same,inhibition at 0.5 µM,"[6]; Severe acute respiratory syndrome coronavirus 2, Vero C1008, beta, 0.5 uM, Vero E6, replicates",0%
same,inhibition at 1 µM,"[6]; Severe acute respiratory syndrome coronavirus 2, Vero C1008, beta, 1 uM, Vero E6, replicates",21.8%
same,inhibition at 2 µM,"[6]; Severe acute respiratory syndrome coronavirus 2, Vero C1008, beta, 2 uM, Vero E6, replicates",85.3%
same,inhibition at 5 µM,"[6]; Severe acute respiratory syndrome coronavirus 2, Vero C1008, beta, 5 uM, Vero E6, replicates",99.5%
same,inhibition at 10 µM,"[6]; Severe acute respiratory syndrome coronavirus 2, Vero C1008, beta, 10 uM, Vero E6, replicates",99.9%
same,inhibition at 50 µM,"[6]; Severe acute respiratory syndrome coronavirus 2, Vero C1008, beta, 50 uM, Vero E6, replicates",99.9%
same,EC90,"[6]; Severe acute respiratory syndrome coronavirus 2, Vero C1008, read-out: EC90 (Confidence 95%), Vero-E6, Beta B.1.351",2320 nM
same,% Inhibition,"[6]; 1 uM, Vero E6, replicates",23.8494%
same,% Inhibition,"[6]; 2 uM, Vero E6, replicates",80.342%
same,% Inhibition,"[6]; 5 uM, Vero E6, replicates",99.4744%
same,% Inhibition,"[6]; 10 uM, Vero E6, replicates",99.9464%
same,% Inhibition,"[6]; 50 uM, Vero E6, replicates",99.9252%
same,EC50,[6],1350 nM
same,Cmax,[7]; GS-441524 in brain,0.073 µmol/kg
same,Cmax,[7]; GS-441524 in kidney,35.165 µmol/kg
same,Cmax,[7]; GS-441524 in liver,8.776 µmol/kg
same,Cmax,[7]; GS-441524 in lung,5.601 µmol/kg
same,"Cmax, RTP in kidney",[7]; 1h,0 nmol/kg
same,"Cmax, RTP in lung",[7]; 1h,0 nmol/kg
same,"Cmax, GS-441525 in brain","[7]; 1h, 100 mg/kg",0.094 nmol/kg and 0 nmol/kg and 0.045 nmol/kg
same,"Cmax, GS-441525 in kidney","[7]; 1h, 100 mg/kg",42.2 nmol/kg and 25.492 nmol/kg and 37.804 nmol/kg
same,"Cmax, GS-441525 in lung","[7]; 1h, 100 mg/kg",6.048 nmol/kg and 4.152 nmol/kg and 6.604 nmol/kg
same,"Cmax, GS-441525 in brain",[7]; 4h,0 nmol/kg
same,"Cmax, RTP in kidney",[7]; 4h,0 nmol/kg
same,"Cmax, GS-441525 in kidney","[7]; 4h, 100 mg/kg",28.184 nmol/kg and 26.156 nmol/kg and 22.136 nmol/kg
same,"Cmax, GS-441525 in lung","[7]; 4h, 100 mg/kg",4.468 nmol/kg and 3.046 nmol/kg and 3.148 nmol/kg
same,"Cmax, RTP in lung","[7]; 4h, 100 mg/kg",0 nmol/kg (2×) and 0.0718 nmol/kg
same,"Cmax, RTP in kidney",[7]; 24h,0 nmol/kg
same,"Cmax, GS-441525 in brain","[7]; 24h, 100 mg/kg",0.0569 nmol/kg and 0.0928 nmol/kg and 0.0692 nmol/kg
same,"Cmax, GS-441525 in kidney","[7]; 24h, 100 mg/kg",0.0683 nmol/kg and 0.0848 nmol/kg and 0.152 nmol/kg
same,"Cmax, GS-441525 in lung","[7]; 24h, 100 mg/kg",0.134 nmol/kg and 0.0467 nmol/kg and 0.0435 nmol/kg
same,"Cmax, RTP in lung","[7]; 24h, 100 mg/kg",0 nmol/kg (2×) and 0.04488 nmol/kg
